Test results from patent US7674827B2, “Indanyl- and tetrahydronaphtyl-amino-thiourea compounds for combating animal pests” (BASF SE, priority 2005, dated 2010).

Legend:
Type in all cases: in vivo
Myzus persicae = assay: Green peach aphid (Myzus persicae) mortality test on dipped pepper plants; details: 120 h, pepper plant leaves dipped, aphid mortality determined after 5 days, read-out: mortality in comparison with untreated controls
Experimental: (§1) The active compounds were formulated • a. for testing the activity against Aphis gossypii, Myzus persicae, and Aphis fabae, as 50:50 acetone:water solutions amended with 100 ppm Kinetic® (surfactant), • b. for testing the activity against Spodoptera eridania as a 10.000 ppm solution in a mixture of 35% acetone and water, which was diluted with water, if needed.
(§2) After the experiments were completed, in each case the lowest concentration was determined at which the compound still caused an 75 to 100% inhibition or mortality in comparison with untreated controls (limit or minimal concentration).
B.2 Green Peach Aphid (Myzus persicae)
Pepper plants in the 2nd leaf-pair stage (variety ‘California Wonder’) are infested with approximately 40 laboratory-reared aphids by placing infested leaf sections on top of the test plants. The leaf sections are removed after 24 hr. The leaves of the intact plants are dipped into gradient solutions of the test compound. Aphid mortality on the treated plants, relative to mortality on check plants, is determined after 5 days.

Aphis fabae = assay: Bean aphid (Aphis fabae) mortality test on dipped nasturtium plants; details: foliar, 72 h, nasturtium foliage and stem dipped, aphid mortality determined after 3 days, read-out: mortality in comparison with untreated controls
Experimental: as §1, §2
B.3 Bean Aphid (Aphis fabae)
Nasturtium plants in the 1st leaf-pair stage (variety ‘Mixed Jewel’) are infested with approximately 25 laboratory-reared aphids by placing infested cut plants on top of the test plants. The cut plants are removed after 24 hr. The foliage and stem of the test plants are dipped into gradient solutions of the test compound. Aphid mortality is determined after 3 days.

Aphis gossypii = assay: Cotton aphid (Aphis gossypii) mortality test on dipped cotton plants; details: 120 h, cotton cotyledons dipped, aphid mortality determined after 5 days, read-out: mortality in comparison with untreated controls
Experimental: as §1, §2
B.1 Cotton Aphid (Aphis gossypii)
Cotton plants in the cotyledon stage (variety ‘Delta Pine’) are infested with approximately 100 laboratory-reared aphids by placing infested leaf sections on top of the test plants. The leaf sections are removed after 24 hr. The cotyledons of the intact plants are dipped into gradient solutions of the test compound. Aphid mortality on the treated plants, relative to mortality on check plants, is determined after 5 days.

Measured: mortality at 300 ppm

O=C(OCCNC(=S)NC1CCc2ccccc21)c1ccncc1 (racemic) [Example 13, Isonicotinic acid 2-(3-indan-1-yl-thioureido)-ethyl ester]
> 80%: all assays above

COCC(=O)OCCNC(=S)NC1CCc2ccccc21 (racemic) [Example 14, Methoxy-acetic acid 2-(3-indan-1-yl-thioureido)-ethyl ester]
> 80%: all assays above
